Reference: article PMC10065799, “High-throughput profiling of sequence recognition by tyrosine kinases and SH2 domains using bacterial peptide display” (eLife, 2023)
Like-named read-outs stand apart in the source and are kept apart here.

Assays:
[1] = system: Fer kinase domain; test: pTyr-Var library bacterial peptide display kinase screen (enrichment scores); assay type: biochemical, mouse; conditions: sheet "Fer"
[2] = molecular target: c-Src kinase domain (Homo sapiens, UniProt P12931); test: as above; assay type: biochemical
[3] = variant peptide relative to its reference peptide, pTyr-Var library screen enrichment
[4] = sheet "Src", variant peptide versus its reference peptide in the pTyr-Var library screen
[5] = sheet "Src", effect of the variant peptide relative to its reference peptide in the pTyr-Var library screen
[6] = value of the variant peptide against its reference peptide in the pTyr-Var library screen with Fer
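Also: log2 fold change in enrichment of variant over reference.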

Sequence	Screen [2, 4]	Screen [2, 5]	Screen [1, 6]	also measured
AAVPAYDKIQV [STXBP2_Y401_R405Q]				Screen [1, 3]: 1.488
DAVCFYRMENA [NPHS2_Y195_I192V_YF]	0.05721			
EFFDGYWEFSV [ITGA2B_Y265_G267E_YF]		0.01389		
EGDGVYTLNDE [HP_Y125_N129D]		-0.1677		
ENELTYFCFKK [CD59_Y86_C89Y_YF]		1.06		
EVTRLYGSVCD [TC2N_Y154_K151T]	2.081			
FSQETYFRVSN [ABCD1_Y180_Q178E_YF]				Screen [2]: 0.7032
FTGDIYSSSNL [LZTR1_Y141_N143S_YF]		-0.3427	-0.3328	
GHMFAYDWISI [BEST1_Y227_L224M_YF]			-0.1339	
GHPFAYDWISI [BEST1_Y227_L224P_YF]			-0.03554	
HFMELYDLNRD [BBS2_Y648_R643H_YF]		1.185		
HILFRYPKEFQ [IDS_Y234_P231L]		0.8356		
HLTLVYGGIFL [FBP1_Y259_R255L]		-0.5188		
IFGVSYGEFRF [CFTR_Y512_D513G_YF]		1.211	-1.628	
ISRDVYSTDFF [NTRK2_Y702_M697I_YF]	0.05631			
KKDGPYDVVVL [PARK7_Y67_E64D]			-0.9233	
KQMEQYMSFHK [HCN1_Y417_V414M]		0.2609		
LIGTPYWMAPE [PAK5_Y608_V604I]	-0.06712			
LITTPYIGFLG [KCNQ1_Y267_L266P]		-1.29		
LKVQVYILGRE [ASS1_Y359_G356V]			1.05	
LTELGYSFVTT [ACTA1_Y200_R198L]			0.9203	
NTGDDYDLFGG [PTPN11_Y63_Y62D_YF]	-2.136			Screen [1, 3]: -1.594

Sequence	Screen [2, 4]	Screen [2, 5]	Screen [1, 6]	also measured
PADCRYFTFPQ [GAMT_Y222_A224T_YF]		0.8198		
PFSSPYENSLI [EPOR_Y489_N487S_YF]			0.2958	
PINLFYLMDLS [ITGB2_Y131_D128N_YF]		-0.4123		
PMWHPYKADVT [TP53TG5_Y255_V257A]	-1.569			
PNLILYGDFRQ [MYH7_Y715_R712L]	-0.8884			
PQEVMYAQLDH [KIR3DL2_Y398_T397M]		-0.9154	0.4165	
PSPMPYAFCQM [FOXL2_Y215_S217F]		1.188	3.3	
PVDGEYFTLQI [TP53_Y327_L323V]	-0.1089			
REVPVYISEDS [SYNM_Y460_G462S]	1.666			
RSSNTYTLMDV [ALCAM_Y298_T301M]		-0.02147		
SEKVVYQRFTE [NCF1_Y41_R42Q]	2.147			
SRDDFYETIAM [NPY1R_Y347_D346Y_YF]			2.699	
SSEILYHIIKG [CDH17_Y489_K486E]		3.183		
SVESPYGSVTF [NDRG2_Y47_T45S]	0.3806		0.8943	
SVGGCYEQLFV [MC4R_Y41_D37V]		-0.5254	-0.4465	
SVVVHYEPPEV [TP53_Y220_P219H]				Screen [1, 3]: 1.725
SWSTSYSGFRC [NKAPL_Y91_Y96C_YF]	-0.8065		-1.554	
TEDELYQLFLQ [RASGRP2_Y378_S381F]	1.657			Screen [1, 3]: 1.535
TLERHYKELQA [SPTBN2_Y834_E835K]				Screen [1, 3]: -2.093
TVSQPYSFIEF [SEC22B_Y110_R108Q]	0.852			Screen [1, 3]: 0.7571
VDTPMYATMQR [TPO_Y55_A53P]	-0.2543			
VHLFAYDWISI [BEST1_Y227_G222V_YF]			-0.5402	
